Measurements from patent US20200236933A1, “USE OF A NON-IONIC SURFACTANT WHICH IS A POLYOL DERIVATIVE AS A PLANT GROWTH STIMULATING AGENT OR AS AN ADJUVANT” (priority 2017, published 2020).

Key:
[1] = tested on: parsley seeds; experiment: Germination of parsley seeds after immersion treatment; assay type: in vivo; conditions: parsley seeds immersed 1 h in 0.75% solution
Experimental: The seeds are next dried in a heating tunnel at 45° C. for one hour. Two batch repetitions of 48 seeds are deposited on Petri dishes containing a medium composed of 2% Agar Agar and 98% water.
The Petri dishes are kept at ambient temperature and in darkness. Each day the number of seeds that have germinated (having a radicle) is counted.

[2] = Drift limitation: size of drops after spraying; assay type: physicochemical; conditions: 2.5% with 5% titanium dioxide; 2, 4 and 8 bars
Source text: Increasing pressures (2, 4 and 8 bars) were used in order to test different conditions (FIG. 21: a, b and c respectively). The greater the pressure the more numerous and fine were the drops.

[3] = tested on: soybeans; experiment: Germination of soybeans after immersion treatment; assay type: in vivo; conditions: soybeans immersed 1 h in 0.75% solution
Experimental: The beans are next dried in a heating tunnel at 45° C. for one hour. Four batch repetitions of 15 beans are deposited on Petri dishes containing a medium composed of 2% Agar Agar and 98% water.
The Petri dishes are kept at ambient temperature and in darkness. Each day the number of germinated beans (having a radicle) is counted.

[4] = tested on: detached leaves of Buddleja davidii; experiment: Persistence of the mixture at the foliar surface; conditions: 1% with 0.1% colorant; rinses with water
Experimental: The effect of the invention on the persistence of the mixture was evaluated after spraying a solution colored blue on detached leaves of Buddleja davidii.
After spraying, the leaves are left at ambient temperature until the sprayed solution has evaporated.
Next, several operations of rinsing the leaves with water are carried out. The rinse water is collected after each rinse and photographs are taken to observe and compare the coloration of the rinse waters. An absorbance measurement at 630 nm is also carried out by spectrophotometry.

[5] = tested on: winter barley (Sobell variety); experiment: Yield of winter barley in climate controlled chamber; assay type: in vivo; conditions: 3 l/ha of 3% solution sprayed at commencement of tillering
Experimental: Assays in a climate controlled chamber (temperature 22° C./20° C., photoperiod 16 h/8 h, 25,000 lux) were carried out on winter barley (Sobell variety, Arvalis). The barley was sowed in containers of 1 meter by 1 meter.
The plants were then watered every 2 weeks with the same amount of water for both control batch and treated batch.
The yields were then calculated as the ratio of the weight of harvested seeds to the sowed area. This ratio is expressed in q/ha.

[6] = Formation of foam on preparing the mixture; assay type: physicochemical; conditions: 1% with 1% Cocamidopropyl betaine
Experimental: The two solutions were next stirred in equivalent manner, the photographs being taken before, immediately after stirring and 1 h after stirring.

With sucrose stearate the “increase of the germination kinetics on average” value [1] was 10%, the “germinated seeds, treated batch compared with the control batch” value ([1]; between 4 days and 6 days) was 2 times and the “size of the drops after spraying” value [2] was “enables an increase the size of the drops”. The “increase of the germination kinetics on average” value [3] was 25%, the “germinated seeds, treated batch compared with the control batch” value ([3]; after 1 day) was 4 times and the “persistence of the mixture on rinsing” value [4] was “still present even after the 4th rinse”. For the same substance, the Yield [5] was 67.9 q/ha, the yield increase [5] was 25% and the “reduction of the volume of foam immediately after stirring” value [6] was 30%.
